Reference: publication PMC6154322, “Anti-Trypanosomatid Elemanolide Sesquiterpene Lactones from Vernonia lasiopus O. Hoffm ^†” (Molecules : A Journal of Synthetic Chemistry and Natural …, 2017)
≈ marks a conversion by molar mass, not a printed value. Where “and” joins values, the source holds several entries; their conditions need not be identical. Identical values can stand only once. Like-named read-outs stand apart in the source and are kept apart here.

Tests used:
[1] = Cytotoxicity test against mammalian cells (L6); conditions: rat
[2] = tested on: P. falciparum (multidrug resistance strain K1); design: method as in PMID 24242110; conditions: cited from earlier work
[3] = tested on: Trypanosoma brucei rhodesiense (bloodstream trypomastigotes, STIB 900 strain); test: In vitro activity against T. b. rhodesiense bloodstream trypomastigotes (STIB 900); assay type: cell-based; conditions: for SI (selectivity index): ratio of cytotoxic (L6) over antiprotozoal (Tbr) IC50 values
[4] = tested on: Plasmodium falciparum (intra erythrocytic forms, NF54 IEF strain); test: In vitro activity against P. falciparum intra-erythrocytic forms (NF54); assay type: cell-based; conditions: NF54, read-out: IC50 Pf (crude extracts)
[5] = tested on: P. falciparum chloroquine sensitive strain PoW; design: method as in PMID 12601673; conditions: cited from earlier work
[6] = tested on: P. falciparum chloroquine-resistant strain Dd2; design: method as in PMID 12601673; conditions: cited from earlier work
[7] = tested on: Leishmania donovani (amastigotes, MHOM-ET-67/L82 strain); test: In vitro activity against L. donovani amastigotes (MHOM-ET-67/L82); assay type: cell-based; conditions: Table 1, MHOM-ET-67/L82 amastigotes, values marked a: only one replicate, others mean of two ± SD, read-out: IC50 Ldon (crude extracts)
[8] = Table 3, STIB 900 trypomastigotes, pure compounds, read-out: IC50 Tbr (elemanolides), value in brackets (converted)
[9] = Trypanosoma brucei, Table 3, STIB 900 trypomastigotes, pure compounds, read-out: IC50 Tbr (elemanolides), value in brackets (converted)
[10] = Trypanosoma brucei, Table 3, STIB 900 trypomastigotes, read-out: IC50 Tbr (elemanolides)

Compound | IC50 [3, 8] [nM] | IC50 [3, 9] [nM] | IC50 [3, 10] [µg/mL] | SI (selectivity index) [3] | IC50 [1] | also measured
C=C[C@@]12COC(=O)C(=C)[C@@H]1[C@@H](O)[C@H](C(=C)C(=O)OC)[C@@H](OC(=O)C(=C)CO)C2 [Compound 4, Vernodalol] | 255 | 260 | 0.1 ± 0.041 | 14.4 | – | IC50 ([1]; L6 rat skeletal myoblast cells): 1.44 µg/mL and 3.67 µM; IC50 anti-plasmodial activity, P. falciparum K1 [2]: 4.2 µg/mL (≈ 10.7 µM); factor by which more active than compound 1 (Tbr) ([3]; compound 4 versus compound 1): ~10
C=C[C@@]12COC(=O)C(=C)[C@@H]1[C@H]1OC(=O)C(=C)[C@@H]1[C@@H](O)C2 [Compound 2, Vernolepin] | 185 | 190 | 0.05 | 14.5 | 0.735 µg/mL and 2.68 µM | IC50 Tbr (elemanolides) ([3]; Table 3, STIB 900 trypomastigotes): 0.051 ± 0.035 µg/mL (≈ 0.185 µM); times more active than the crude extract (Tbr) ([3]; versus DCM crude extract): approximately 3.5
COc1cc([C@@H]2c3cc4c(cc3[C@H](O)[C@H]3COC(=O)[C@H]23)OCO4)cc(OC)c1OC [podophyllotoxin, reference compound] | – | – | – | – | 0.007 ± 0.001 µg/mL (≈ 0.0169 µM) | –
CCN(CC)CCCC(C)Nc1ccnc2cc(Cl)ccc12 (stereo not drawn) [chloroquine] | – | – | – | – | – | IC50 [4]: 0.002 µg/mL (≈ 0.00625 µM)
C=C[C@@]12COC(=O)C(=C)[C@@H]1[C@@H](O)[C@@H]1C(=C)C(=O)O[C@H]1C2 [Compound 3, Vernomenin] | – | 508 | 0.14 ± 0.1 | 4.50 | 0.62 µg/mL and 2.26 µM | –
11,13-Dihydrovernodalin [Compound 6] | – | – | – | – | – | IC50 P. falciparum PoW [5]: 2.3 µg/mL; IC50 P. falciparum Dd2 [6]: 1.1 µg/mL
C=CC12COC(=O)C(=C)C1C(O)C(C(=C)C(=O)OC)C(O)C2 (stereo not drawn) [Compound 1, 8-Desacylvernodalol] | 2530 | 2500 | 0.779 ± 0.22 | 13.7 | – | IC50 ([1]; L6 rat skeletal myoblast cells): 10.7 µg/mL and 34.6 µM
C=C[C@@]12COC(=O)C(=C)[C@@H]1[C@H]1OC(=O)C(=C)[C@@H]1[C@@H](OC(=O)C(=C)CO)C2 [Compound 5, Vernodalin] | – | – | – | – | – | IC50 anti-plasmodial activity, P. falciparum K1 [2]: 4.0 µg/mL (≈ 11.1 µM)
CCCCCCCCCCCCCCCCOP(=O)([O-])OCC[N+](C)(C)C [miltefosine] | – | – | – | – | – | IC50 [7]: 0.091 ± 0.07 µg/mL (≈ 0.223 µM)
Nc1nc(N)nc(Nc2ccc([As]3SCC(CO)S3)cc2)n1 (stereo not drawn) [melarsoprol, reference compound] | – | – | – | – | – | IC50 ([3]; Trypanosoma brucei, read-out: IC50 Tbr (crude extracts)): 0.003 ± 0.001 µg/mL
